Data taken from PubChem BioAssay (NCI).
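In this assay, cells in 96-well plates receive the compound at five concentrations for 48 hours. Endpoints are linearly interpolated between the surrounding concentrations. The concentration for full growth arrest is given as TGI.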

Legend:
Assay in all cases: NCI anticancer screen, dose series, 48 h
SK-MEL-2 melanoma = test system: SK-MEL-2 melanoma
IGROV1 ovarian = test system: IGROV1 ovarian
T-47D breast = test system: T-47D breast
PC-3 prostate = test system: PC-3 prostate
SK-MEL-28 melanoma = test system: SK-MEL-28 melanoma
LOX IMVI melanoma = test system: LOX IMVI melanoma
SNB-19 CNS = test system: SNB-19 CNS
NCI-H226 lung = test system: NCI-H226 lung
SR leukemia = test system: SR leukemia
OVCAR-8 ovarian = test system: OVCAR-8 ovarian
HOP-62 NSCLC = test system: HOP-62 NSCLC
CAKI-1 renal = test system: CAKI-1 renal
SW-620 colon = test system: SW-620 colon
UACC-257 melanoma = test system: UACC-257 melanoma
SF-268 CNS = test system: SF-268 CNS
MDA-N = test system: MDA-N
A498 renal = test system: A498 renal
U251 CNS = test system: U251 CNS
OVCAR-3 ovarian = test system: OVCAR-3 ovarian
NCI/ADR-RES ovarian = test system: NCI/ADR-RES ovarian
MALME-3M melanoma = test system: MALME-3M melanoma
K-562 leukemia = test system: K-562 leukemia
HS 578T breast = test system: HS 578T breast
HCT-15 colon = test system: HCT-15 colon
HOP-92 NSCLC = test system: HOP-92 NSCLC
786-0 renal = test system: 786-0 renal
MDA-MB-231 breast = test system: MDA-MB-231 breast
HT29 colon = test system: HT29 colon
BT-549 breast = test system: BT-549 breast
SK-MEL-5 melanoma = test system: SK-MEL-5 melanoma
SF-295 CNS = test system: SF-295 CNS
RXF 393 renal = test system: RXF 393 renal
HL-60(TB) leukemia = test system: HL-60(TB) leukemia
COLO 205 colon = test system: COLO 205 colon
DU-145 prostate = test system: DU-145 prostate
RPMI-8226 leukemia = test system: RPMI-8226 leukemia
HCT-116 colon = test system: HCT-116 colon
OVCAR-5 ovarian = test system: OVCAR-5 ovarian
OVCAR-4 ovarian = test system: OVCAR-4 ovarian
SF-539 CNS = test system: SF-539 CNS
UO-31 renal = test system: UO-31 renal
NCI-H522 lung = test system: NCI-H522 lung
EKVX NSCLC = test system: EKVX NSCLC
SNB-75 CNS = test system: SNB-75 CNS
A549 NSCLC = test system: A549 NSCLC
M14 melanoma = test system: M14 melanoma
NCI-H23 lung = test system: NCI-H23 lung
UACC-62 melanoma = test system: UACC-62 melanoma
MCF7 breast = test system: MCF7 breast
TK-10 renal = test system: TK-10 renal
SN12C renal = test system: SN12C renal
MDA-MB-435 = test system: MDA-MB-435
NCI-H460 lung = test system: NCI-H460 lung
SK-OV-3 ovarian = test system: SK-OV-3 ovarian
ACHN renal = test system: ACHN renal
MOLT-4 leukemia = test system: MOLT-4 leukemia
KM12 colon = test system: KM12 colon

Measured: TGI

CC(C)NC1(C(N)=O)CCN(Cc2ccccc2)CC1
> 100 µM: SK-MEL-2 melanoma | IGROV1 ovarian | T-47D breast | PC-3 prostate | SK-MEL-28 melanoma | LOX IMVI melanoma | SNB-19 CNS | NCI-H226 lung | SR leukemia | OVCAR-8 ovarian | HOP-62 NSCLC | CAKI-1 renal | SW-620 colon | UACC-257 melanoma | SF-268 CNS | MDA-N | A498 renal | U251 CNS | OVCAR-3 ovarian | NCI/ADR-RES ovarian | MALME-3M melanoma | K-562 leukemia | HS 578T breast | HCT-15 colon | HOP-92 NSCLC | 786-0 renal | MDA-MB-231 breast | HT29 colon | BT-549 breast | SK-MEL-5 melanoma | SF-295 CNS | RXF 393 renal | HL-60(TB) leukemia | COLO 205 colon | DU-145 prostate | RPMI-8226 leukemia | HCT-116 colon | OVCAR-5 ovarian | OVCAR-4 ovarian | SF-539 CNS | UO-31 renal | NCI-H522 lung | EKVX NSCLC | SNB-75 CNS | A549 NSCLC | M14 melanoma | NCI-H23 lung | UACC-62 melanoma | MCF7 breast | TK-10 renal | SN12C renal | MDA-MB-435 | NCI-H460 lung | SK-OV-3 ovarian | ACHN renal | MOLT-4 leukemia | KM12 colon
